# Assay results as given in patent US9492471B2, “Methods of treating a disease or disorder associated with Bruton'S Tyrosine Kinase” (Celgene Avilomics Research, Inc., priority 2013, dated 2016).
# Read-outs that look alike come from different tables or passages of the source.
# What was measured:
# Assay in all cases: HotSpot kinase profiling
# Type in all cases: biochemical
# NEK2 = target: T1, NEK2 (Homo sapiens, UniProt P51955)
# T1 construct: purchased Reaction Biology Corp
# T1 sequence (P51955 1-445): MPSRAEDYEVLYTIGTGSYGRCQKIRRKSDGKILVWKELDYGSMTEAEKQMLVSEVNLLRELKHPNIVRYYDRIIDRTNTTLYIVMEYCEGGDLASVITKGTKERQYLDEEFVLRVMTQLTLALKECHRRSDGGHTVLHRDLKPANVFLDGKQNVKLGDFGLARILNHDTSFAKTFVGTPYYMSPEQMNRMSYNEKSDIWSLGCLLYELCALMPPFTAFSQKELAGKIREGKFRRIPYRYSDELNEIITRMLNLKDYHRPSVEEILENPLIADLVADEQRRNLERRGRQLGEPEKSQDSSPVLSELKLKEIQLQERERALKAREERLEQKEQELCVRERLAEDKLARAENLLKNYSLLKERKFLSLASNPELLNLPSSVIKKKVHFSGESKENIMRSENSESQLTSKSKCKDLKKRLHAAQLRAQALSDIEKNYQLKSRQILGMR
# Outline: (§1)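 Activity is measured by radiolabel transfer captured on P81 filters after a 2 h room-temperature reaction of kinase, substrate and cofactors. Values are percent inhibition against DMSO.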
# EGFR = target: T2, EGFR (Homo sapiens, UniProt P00533)
# T2 construct: purchased Reaction Biology Corp
# T2 sequence (P00533 25-1210): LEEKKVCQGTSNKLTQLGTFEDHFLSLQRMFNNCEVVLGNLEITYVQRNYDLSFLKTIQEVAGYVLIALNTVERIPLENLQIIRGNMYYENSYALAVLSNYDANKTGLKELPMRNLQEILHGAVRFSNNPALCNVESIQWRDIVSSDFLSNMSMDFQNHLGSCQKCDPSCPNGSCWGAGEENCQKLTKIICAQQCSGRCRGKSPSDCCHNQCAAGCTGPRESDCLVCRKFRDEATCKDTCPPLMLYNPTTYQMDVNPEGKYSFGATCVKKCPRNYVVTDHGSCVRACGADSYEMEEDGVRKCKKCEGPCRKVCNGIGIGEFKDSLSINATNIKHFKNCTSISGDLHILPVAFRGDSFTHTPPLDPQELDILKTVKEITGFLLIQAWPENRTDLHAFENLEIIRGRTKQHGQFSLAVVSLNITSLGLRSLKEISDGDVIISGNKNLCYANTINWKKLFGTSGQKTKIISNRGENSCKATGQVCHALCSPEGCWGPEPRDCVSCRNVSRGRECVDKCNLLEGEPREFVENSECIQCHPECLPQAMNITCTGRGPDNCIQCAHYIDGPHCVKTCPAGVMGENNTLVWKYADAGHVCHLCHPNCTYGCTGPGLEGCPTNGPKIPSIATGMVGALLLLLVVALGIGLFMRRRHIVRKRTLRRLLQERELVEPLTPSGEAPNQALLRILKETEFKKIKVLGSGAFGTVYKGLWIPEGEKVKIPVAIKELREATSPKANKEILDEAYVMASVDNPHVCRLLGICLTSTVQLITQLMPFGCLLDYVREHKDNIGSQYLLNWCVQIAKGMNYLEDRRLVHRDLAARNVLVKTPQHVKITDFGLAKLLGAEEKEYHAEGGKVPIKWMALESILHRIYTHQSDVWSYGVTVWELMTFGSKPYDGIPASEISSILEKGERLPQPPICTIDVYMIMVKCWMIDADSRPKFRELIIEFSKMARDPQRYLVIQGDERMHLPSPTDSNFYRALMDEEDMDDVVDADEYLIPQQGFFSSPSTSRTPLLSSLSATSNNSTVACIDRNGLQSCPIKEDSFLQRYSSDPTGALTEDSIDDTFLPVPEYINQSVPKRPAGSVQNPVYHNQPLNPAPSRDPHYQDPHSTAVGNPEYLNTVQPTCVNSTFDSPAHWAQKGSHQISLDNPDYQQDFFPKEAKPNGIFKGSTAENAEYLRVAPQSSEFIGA
# Outline: as §1
# PKCepsilon = target: T3, PKCepsilon (Homo sapiens, UniProt Q02156)
# T3 construct: purchased Reaction Biology Corp
# T3 sequence (Q02156 1-737): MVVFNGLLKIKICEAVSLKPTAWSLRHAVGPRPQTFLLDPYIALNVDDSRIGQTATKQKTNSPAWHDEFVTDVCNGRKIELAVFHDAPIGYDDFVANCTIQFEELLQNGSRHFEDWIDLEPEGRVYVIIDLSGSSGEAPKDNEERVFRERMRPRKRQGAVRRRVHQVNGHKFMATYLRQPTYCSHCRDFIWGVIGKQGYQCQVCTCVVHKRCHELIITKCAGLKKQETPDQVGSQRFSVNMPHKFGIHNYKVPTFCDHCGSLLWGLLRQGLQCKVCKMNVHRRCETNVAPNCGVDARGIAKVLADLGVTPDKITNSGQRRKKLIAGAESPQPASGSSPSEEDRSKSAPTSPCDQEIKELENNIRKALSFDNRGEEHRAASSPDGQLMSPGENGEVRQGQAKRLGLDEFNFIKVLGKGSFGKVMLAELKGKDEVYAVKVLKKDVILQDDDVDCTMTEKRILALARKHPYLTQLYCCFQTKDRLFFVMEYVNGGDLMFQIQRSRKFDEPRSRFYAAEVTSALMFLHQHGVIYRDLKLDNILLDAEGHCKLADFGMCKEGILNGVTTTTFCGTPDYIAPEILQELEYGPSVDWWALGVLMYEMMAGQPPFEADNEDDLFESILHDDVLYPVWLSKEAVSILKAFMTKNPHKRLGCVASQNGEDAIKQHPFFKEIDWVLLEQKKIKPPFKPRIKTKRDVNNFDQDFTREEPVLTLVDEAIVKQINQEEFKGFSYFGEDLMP
# Outline: as §1
# P38a/MAPK14 = target: T4, P38a/MAPK14 (Homo sapiens, UniProt Q16539)
# T4 construct: purchased Reaction Biology Corp
# T4 sequence (Q16539 whole entry): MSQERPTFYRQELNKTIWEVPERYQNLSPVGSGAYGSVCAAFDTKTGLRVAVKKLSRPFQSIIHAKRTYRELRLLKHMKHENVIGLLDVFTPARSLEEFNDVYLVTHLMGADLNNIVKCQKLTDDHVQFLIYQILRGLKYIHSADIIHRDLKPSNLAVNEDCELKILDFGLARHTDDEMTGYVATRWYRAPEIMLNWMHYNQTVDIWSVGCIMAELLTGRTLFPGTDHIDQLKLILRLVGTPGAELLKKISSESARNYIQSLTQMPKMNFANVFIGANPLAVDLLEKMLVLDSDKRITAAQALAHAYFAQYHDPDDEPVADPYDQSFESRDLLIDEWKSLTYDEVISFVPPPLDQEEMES
# Outline: as §1
# MNK1 = target: T5, MNK1 (Homo sapiens, UniProt Q9BUB5)
# T5 construct: purchased Reaction Biology Corp
# T5 sequence (Q9BUB5 whole entry): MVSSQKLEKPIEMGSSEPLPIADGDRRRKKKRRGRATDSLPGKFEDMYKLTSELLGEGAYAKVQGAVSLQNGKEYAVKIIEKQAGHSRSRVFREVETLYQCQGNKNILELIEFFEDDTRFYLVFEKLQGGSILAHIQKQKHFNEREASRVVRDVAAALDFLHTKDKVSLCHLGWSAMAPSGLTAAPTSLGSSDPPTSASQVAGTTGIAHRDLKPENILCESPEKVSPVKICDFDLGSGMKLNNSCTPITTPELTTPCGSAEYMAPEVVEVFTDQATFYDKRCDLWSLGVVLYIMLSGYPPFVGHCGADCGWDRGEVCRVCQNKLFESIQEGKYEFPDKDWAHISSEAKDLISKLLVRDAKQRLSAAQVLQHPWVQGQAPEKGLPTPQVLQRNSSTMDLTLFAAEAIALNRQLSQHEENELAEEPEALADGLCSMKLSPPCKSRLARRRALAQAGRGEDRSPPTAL
# Outline: as §1
# ULK3 = target: T6, ULK3 (Homo sapiens, UniProt Q6PHR2)
# T6 construct: purchased Reaction Biology Corp
# T6 sequence (Q6PHR2 1-472): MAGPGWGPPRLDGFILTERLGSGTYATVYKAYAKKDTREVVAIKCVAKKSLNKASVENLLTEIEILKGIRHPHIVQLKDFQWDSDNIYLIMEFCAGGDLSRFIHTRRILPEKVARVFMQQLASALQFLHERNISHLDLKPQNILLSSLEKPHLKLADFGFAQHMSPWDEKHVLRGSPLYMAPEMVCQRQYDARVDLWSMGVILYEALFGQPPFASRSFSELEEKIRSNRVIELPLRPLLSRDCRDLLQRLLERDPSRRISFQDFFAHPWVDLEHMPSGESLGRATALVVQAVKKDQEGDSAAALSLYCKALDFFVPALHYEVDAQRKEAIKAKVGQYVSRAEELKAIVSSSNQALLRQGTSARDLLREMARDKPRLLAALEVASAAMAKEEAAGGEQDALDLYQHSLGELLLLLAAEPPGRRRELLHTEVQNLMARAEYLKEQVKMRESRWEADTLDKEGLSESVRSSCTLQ
# Outline: as §1
# [1] = read-out: % Enzyme Activity (relative to DMSO controls) Run 1
# [2] = read-out: % Enzyme Activity (relative to DMSO controls) Run 2
smiles,measurement,setting,value
C=CC(=O)Nc1cccc(Nc2nc(Nc3ccc(OCCOC)c(F)c3)ncc2F)c1 [Compound 2],inhibition at 3 µM,NEK2,-4.44%
same,remaining activity at 3 µM,NEK2; [1],102%
same,remaining activity at 3 µM,NEK2; [2],107%
same,inhibition at 3 µM,EGFR,80.3%
same,remaining activity at 3 µM,EGFR; [1],19.2%
same,remaining activity at 3 µM,EGFR; [2],20.2%
same,inhibition at 3 µM,PKCepsilon,6.29%
same,remaining activity at 3 µM,PKCepsilon; [1],93.2%
same,remaining activity at 3 µM,PKCepsilon; [2],94.2%
same,inhibition at 3 µM,P38a/MAPK14,-6.68%
same,remaining activity at 3 µM,P38a/MAPK14; [1],106%
same,remaining activity at 3 µM,P38a/MAPK14; [2],108%
same,inhibition at 3 µM,MNK1,3.98%
same,remaining activity at 3 µM,MNK1; [1],97.8%
same,remaining activity at 3 µM,MNK1; [2],94.3%
same,inhibition at 3 µM,ULK3,21.7%
same,remaining activity at 3 µM,ULK3; [1],79.6%
same,remaining activity at 3 µM,ULK3; [2],77%
